Test results: patent publication US10434116B2 (priority 2014, dated 2019)
“Also recorded” adds a separate entry of the source. Where a name gives a salt, the structure may show the parent alone. Read-outs that look alike come from different tables or passages of the source.

Assays:
MERS-CoV [1] = assay: microbe, parasite or virus in culture; type: cell-based, MERS-CoV strain Hu/Jordan-N3/2012; conditions: for EC50: read-out: EC50 against MERS-CoV
SARS-CoV [2] = assay: microbe, parasite or virus in culture; type: cell-based; conditions: Severe acute respiratory syndrome coronavirus, Vero C1008, read-out: EC50 for SARS-CoV (virus production, TCID50)
MERS-CoV (Jordan) = assay: microbe, parasite or virus in culture; type: cell-based; conditions: Middle East respiratory syndrome-related coronavirus, Vero C1008, read-out: EC50 for MERS-CoV (virus production, TCID50)
SARS-CoV [3] = conditions: mouse, in vivo; cited from earlier work
MERS-S pseudoparticles = type: cell-based, MERS-CoV
SARS-CoV [4] = type: cell-based
MERS-CoV [5] = type: cell-based
MERS-CoV [6] = assay: microbe, parasite or virus in culture; type: cell-based; conditions: Middle East respiratory syndrome-related coronavirus, Vero C1008, read-out: IC50 value for MERS-CoV (TCID50 assay)
SARS-CoV [7] = assay: microbe, parasite or virus in culture; type: cell-based; conditions: Severe acute respiratory syndrome coronavirus, Vero C1008, read-out: IC50 value for SARS-CoV (TCID50 assay)
MERS-CoV [8] = conditions: cited from earlier work
SARS-CoV [9] = conditions: cited from earlier work
[10] = Middle East respiratory syndrome-related coronavirus, Vero C1008, 48 h, read-out: MERS-CoV IC50
[11] = Middle East respiratory syndrome-related coronavirus, Vero
[12] = Middle East respiratory syndrome-related coronavirus, Vero C1008, 48 h, read-out: IC50 against MERS-CoV

SMILES | IC50 (MERS-CoV [1]; [10]) | toxicity (Vero E6 cells) | further results
CCN(CC)Cc1cc(Nc2ccnc3cc(Cl)ccc23)ccc1O | 6.21 µM |  | 
CC[C@H]1CN2CCc3cc(OC)c(OC)cc3[C@@H]2C[C@@H]1C[C@H]1NCCc2cc(OC)c(OC)cc21 | 0.014 µM |  | 
COc1ccc(C[C@H]2NC[C@H](O)[C@H]2OC(C)=O)cc1 [Anisomycin] |  |  | IC50 (MERS-CoV [1]; read-out: MERS-CoV IC50): 0.003 µM
CCN(CC)CCCC(C)Nc1ccnc2cc(Cl)ccc12 (centres unmarked) [Chloroquine Phosphate] | 6.28 µM |  | EC50 (SARS-CoV [2]): 6.43 µM; EC50 (MERS-CoV (Jordan)): 18.4 µM; efficacy in reducing SARS-CoV virus titers (SARS-CoV [3]): did not show efficacy; EC50 (MERS-CoV [1]; [11]): 9.51 µM; EC50 (MERS-CoV [1]): 6.28 µM
CN(C)CCOC(C)(c1ccccc1)c1ccc(Cl)cc1 (centres unmarked) [Chlorphenoxamine hydrochloride] | 12.6 µM |  | 
CN(C)CCCN1c2ccccc2Sc2ccc(Cl)cc21 [Chlorpromazine hydrochloride] | 9.51 µM | low toxicity | EC50 (SARS-CoV [2]): 4.86 µM; EC50 (MERS-CoV (Jordan)): 19.4 µM; IC50 (MERS-CoV [1]; [12]): 5.76 to 12.9 µM
O=C1NCN(c2ccccc2)C12CCN(CCCC(c1ccc(F)cc1)c1ccc(F)cc1)CC2 [Fluspirilene] | 7.48 µM |  | 
Nc1ccn([C@@H]2O[C@H](CO)[C@@H](O)C2(F)F)c(=O)n1 [Gemcitabine hydrochloride] | 1.22 µM | low toxicity | CCF2 signal (fluorescence) (MERS-S pseudoparticles): 95 % of control; EC50 (MERS-CoV [1]; [11]): 1.2 µM
COC(=O)C[C@](O)(CCCC(C)(C)O)C(=O)O[C@@H]1C(OC)=C[C@]23CCCN2CCc2cc4c(cc2[C@H]13)OCO4 [Homoharringtonine] | 0.0718 µM |  | 
CCN(CCO)CCCC(C)Nc1ccnc2cc(Cl)ccc12 (centres unmarked) [Hydroxychloroquine sulfate] | 8.28 µM |  | 
Cc1ccc(NC(=O)c2ccc(CN3CCN(C)CC3)cc2)cc1Nc1nccc(-c2cccnc2)n1 [Imatinib mesylate] |  | low toxicity | inhibition of virus growth, SARS-CoV (SARS-CoV [4]): significant inhibition of virus growth; also recorded: little inhibition of either virus; inhibition of virus growth, MERS-CoV (MERS-CoV [5]): significant inhibition of virus growth; also recorded: little inhibition of either virus; CCF2 signal (fluorescence) (MERS-S pseudoparticles): 7.8 % of control
OC(c1cc(C(F)(F)F)nc2c(C(F)(F)F)cccc12)C1CCCCN1 (centres unmarked) [Mefloquine] | 7.42 µM |  | 
Cc1cn(-c2cc(NC(=O)c3ccc(C)c(Nc4nccc(-c5cccnc5)n4)c3)cc(C(F)(F)F)c2)cn1 [Nilotinib] | 5.47 µM | low toxicity | inhibition of virus growth, SARS-CoV (SARS-CoV [4]): significant inhibition of virus growth; also recorded: little inhibition of either virus; IC50 (MERS-CoV [6]): 9.53 µM; IC50 (SARS-CoV [7]): 2.3 µM; activity against MERS-CoV (in words) (MERS-CoV [1]): does not significantly inhibit MERS-CoV; maximum inhibition of MERS-CoV (MERS-CoV [1]): 39%
CC(CN1c2ccccc2Sc2ccccc21)N(C)C (centres unmarked) [Promethazine hydrochloride] | 11.8 µM |  | 
CC(C)N1CCN(c2ccc(OCC3COC(Cn4cncn4)(c4ccc(Cl)cc4Cl)O3)cc2)CC1 (centres unmarked) [Terconazole] | 12.2 µM |  | 
CCSc1ccc2c(c1)N(CCCN1CCN(C)CC1)c1ccccc1S2 [Thiethylperazine maleate] | 7.87 µM |  | 
CN1CCN(CC/C=C2/c3ccccc3Sc3ccc(S(=O)(=O)N(C)C)cc32)CC1 [Thiothixene] | 9.3 µM |  | 
CN(C)CCOc1ccc(/C(=C(/CCCl)c2ccccc2)c2ccccc2)cc1 [Toremifene citrate] | 12.9 µM | low toxicity | EC50 (MERS-CoV [1]; [11]): 12.9 µM
CN(C)CCCN1c2ccccc2Sc2ccc(C(F)(F)F)cc21 [Triflupromazine hydrochloride] | 5.76 µM | low toxicity | IC50 (MERS-CoV [1]; [12]): 5.76 to 12.9 µM; IC50 (MERS-CoV [1]; read-out: IC50 against MERS-CoV, hydrochloride): 5.76 µM
CCN(CC)CCOc1ccc(C(O)(Cc2ccc(Cl)cc2)c2ccc(C)cc2)cc1 (centres unmarked) [Triparanol] | 5.28 µM |  | 
Cc1nc(Nc2ncc(C(=O)Nc3c(C)cccc3Cl)s2)cc(N2CCN(CCO)CC2)n1 [dasatinib] |  | low toxicity | 
COc1c(C)c2c(c(O)c1C/C=C(\C)CCC(=O)O)C(=O)OC2 [mycophenolic acid (MPA), mycophenolic acid] |  |  | effect against MERS-CoV infection in vitro (MERS-CoV [8]): highly effective; activity against SARS-CoV infection (SARS-CoV [9]): little activity
COC(=O)Nc1nc2ccc(C(=O)c3cccs3)cc2[nH]1 [nocodazole] |  |  | activity against MERS-CoV (in words) (MERS-CoV [1]): high activity
